Here are results for five compounds from ChEMBL document CHEMBL1201862, “PubChem BioAssay data set” (2004).

The source made the active and inactive calls.

The target in assay [1] is T1, Sentrin-specific protease 8 (Homo sapiens, UniProt Q96LD8).
T1 sequence (Q96LD8 whole entry): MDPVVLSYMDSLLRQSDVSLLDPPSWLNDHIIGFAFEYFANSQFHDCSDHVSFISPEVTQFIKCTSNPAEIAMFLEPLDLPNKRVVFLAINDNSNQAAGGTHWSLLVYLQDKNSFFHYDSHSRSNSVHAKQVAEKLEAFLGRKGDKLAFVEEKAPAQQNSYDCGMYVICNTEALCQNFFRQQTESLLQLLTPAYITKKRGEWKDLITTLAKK
As to the kind of experiment: inhibition of human SENP8 cleavage activity – biochemical, luminescence, SAR follow-up (AID 504501). The class given is functional.

Assay [2] concerns the target T2, Caspase-3 (Homo sapiens, UniProt P42574).
T2 sequence (P42574 whole entry): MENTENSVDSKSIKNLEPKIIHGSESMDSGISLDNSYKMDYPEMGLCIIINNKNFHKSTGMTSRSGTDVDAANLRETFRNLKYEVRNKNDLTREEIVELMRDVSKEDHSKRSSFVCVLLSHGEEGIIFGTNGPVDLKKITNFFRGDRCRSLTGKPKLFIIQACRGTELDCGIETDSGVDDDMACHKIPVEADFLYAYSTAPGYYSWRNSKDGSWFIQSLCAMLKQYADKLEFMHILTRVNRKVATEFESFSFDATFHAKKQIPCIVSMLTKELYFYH
As to the kind of experiment: SAR Analysis of small molecule inhibitors of Sentrin-specific proteases (SENPs) using a Caspase-3 Selectivity assay. [Related pubchem assays (depositor defined):AID2540, AID2599, AID434973, AID489001]. The class given is functional.

The target of assay [3] is T3, Sentrin-specific protease 6 (Homo sapiens, UniProt Q9GZR1).
T3 sequence (Q9GZR1 whole entry): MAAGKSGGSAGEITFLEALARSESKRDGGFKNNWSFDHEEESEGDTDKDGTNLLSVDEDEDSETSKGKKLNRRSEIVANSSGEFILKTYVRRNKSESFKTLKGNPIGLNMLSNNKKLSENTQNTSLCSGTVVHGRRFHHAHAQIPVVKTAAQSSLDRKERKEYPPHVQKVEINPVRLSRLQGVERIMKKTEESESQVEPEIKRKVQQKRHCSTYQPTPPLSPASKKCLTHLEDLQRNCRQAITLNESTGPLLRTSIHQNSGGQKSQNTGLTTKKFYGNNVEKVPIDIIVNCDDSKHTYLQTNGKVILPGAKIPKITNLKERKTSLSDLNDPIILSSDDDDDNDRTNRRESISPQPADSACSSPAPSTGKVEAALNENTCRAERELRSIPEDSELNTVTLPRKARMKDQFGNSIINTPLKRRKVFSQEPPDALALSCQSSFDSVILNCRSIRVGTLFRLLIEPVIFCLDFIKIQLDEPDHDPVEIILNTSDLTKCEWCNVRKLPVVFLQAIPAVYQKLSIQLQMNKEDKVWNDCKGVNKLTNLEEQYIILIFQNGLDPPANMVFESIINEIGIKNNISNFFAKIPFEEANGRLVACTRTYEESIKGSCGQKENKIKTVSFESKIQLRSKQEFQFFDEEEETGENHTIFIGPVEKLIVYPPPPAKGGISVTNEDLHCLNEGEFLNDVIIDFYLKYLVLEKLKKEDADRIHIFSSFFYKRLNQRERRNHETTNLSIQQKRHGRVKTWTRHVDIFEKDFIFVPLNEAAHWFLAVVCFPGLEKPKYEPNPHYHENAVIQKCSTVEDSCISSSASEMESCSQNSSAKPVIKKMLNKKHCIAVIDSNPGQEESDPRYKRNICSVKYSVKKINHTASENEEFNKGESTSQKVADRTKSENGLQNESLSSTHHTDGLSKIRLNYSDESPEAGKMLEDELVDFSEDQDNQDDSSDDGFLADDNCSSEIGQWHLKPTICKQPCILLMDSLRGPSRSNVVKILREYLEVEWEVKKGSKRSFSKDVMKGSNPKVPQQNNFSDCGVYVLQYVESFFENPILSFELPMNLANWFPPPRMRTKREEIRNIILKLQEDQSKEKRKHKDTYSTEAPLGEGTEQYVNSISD
As to the kind of experiment: SAR Analysis of small molecule inhibitors of Sentrin-specific protease 6 (SENP6) using a Luminescent assay. [Related pubchem assays (depositor defined):AID2582, AID2599]. In kind it is functional.

In assay [4] the target is T4, Sentrin-specific protease 7 (Homo sapiens, UniProt Q9BQF6).
T4 sequence (Q9BQF6 whole entry): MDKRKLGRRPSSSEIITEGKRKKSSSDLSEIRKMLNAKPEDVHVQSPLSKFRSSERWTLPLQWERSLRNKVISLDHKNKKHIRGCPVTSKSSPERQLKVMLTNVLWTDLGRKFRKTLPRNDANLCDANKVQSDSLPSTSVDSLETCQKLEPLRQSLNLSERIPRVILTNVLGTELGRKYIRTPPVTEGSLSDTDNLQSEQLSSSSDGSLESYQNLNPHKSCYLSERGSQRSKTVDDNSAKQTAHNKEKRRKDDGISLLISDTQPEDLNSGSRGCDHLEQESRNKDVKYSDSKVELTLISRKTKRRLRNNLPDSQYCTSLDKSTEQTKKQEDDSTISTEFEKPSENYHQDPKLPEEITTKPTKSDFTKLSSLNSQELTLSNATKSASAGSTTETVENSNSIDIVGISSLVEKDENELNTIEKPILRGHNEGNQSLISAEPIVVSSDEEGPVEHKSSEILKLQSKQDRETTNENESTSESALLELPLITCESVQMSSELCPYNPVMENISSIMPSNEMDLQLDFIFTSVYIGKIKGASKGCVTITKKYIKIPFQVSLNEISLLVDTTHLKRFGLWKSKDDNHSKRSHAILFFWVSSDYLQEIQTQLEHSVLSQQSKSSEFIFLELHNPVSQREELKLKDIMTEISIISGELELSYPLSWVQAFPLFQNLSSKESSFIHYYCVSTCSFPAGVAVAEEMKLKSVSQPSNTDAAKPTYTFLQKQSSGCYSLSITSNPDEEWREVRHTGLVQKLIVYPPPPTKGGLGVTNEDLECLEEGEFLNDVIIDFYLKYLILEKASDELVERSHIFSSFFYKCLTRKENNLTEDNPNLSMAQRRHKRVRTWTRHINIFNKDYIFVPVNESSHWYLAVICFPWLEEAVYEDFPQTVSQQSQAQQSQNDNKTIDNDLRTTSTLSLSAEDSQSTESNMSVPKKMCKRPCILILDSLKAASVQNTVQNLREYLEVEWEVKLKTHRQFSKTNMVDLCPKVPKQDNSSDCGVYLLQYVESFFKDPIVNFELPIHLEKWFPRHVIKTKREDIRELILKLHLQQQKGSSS
As to the kind of experiment: inhibition of human SENP7 cleavage activity – biochemical, luminescence, SAR follow-up (AID 504497). In kind it is functional.

Assay [5] is described as follows: Trypanosoma cruzi growth suppression in host cells – NIH3T3 host cells, beta-gal luminescence, confirmation (AID 2044).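 Further: intracellular parasites grown in NIH/3T3 mouse fibroblasts as host cells; luminescent beta-galactosidase reporter signal from transgenic T. cruzi replicating inside host cells; inhibitors lower the luminescence signal.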 In kind it is functional, cell-based.
For assay [6], the target named is Mucolipin-3 (Homo sapiens, UniProt Q8TDD5). The assay can be described thus: Dose response cell-based high-throughput screening assay for agonists of the transient receptor potential channel ML3 (TRPML3). [Related pubchem assays: 1526, 1424, 1448 ]. In kind it is functional.
Assay [7] is described as follows: NIH3T3 cell viability loss – ATP luminescence, mouse fibroblasts, counter-screen, dose response (AID 2010).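 Further: cells exposed to compound for about 90 hours before reading.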 In kind it is functional, cell-based. A general note: The purpose of a counterscreen is to sort out artefacts and off-target activity.
The target of assay [8] is Ion channel NompC (Danio rerio, UniProt Q7T1G6). As to the kind of experiment: Fluorescence counterscreen assay for TRPML3 agonists: dose response cell-based high-throughput screening assay to identify agonists of the transient receptor potential channel N1 (TRPN1). [Related pubchem assays: 1526, 1424, 1448 ]. The class given is functional.
Assay [9] has as its system CHO. As to the kind of experiment: CHO cell viability loss, potency – luminescence, cytotoxicity control for TLR9-MyD88 binding inhibitor project, dose response (AID 588339).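 Further: CHO cells stably coexpressing TLR9 and MyD88 fusions from primary screen; compound exposure lasted 48 hours before viability readout.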 In kind it is functional, cell-based, hamster. The note with it: Cricetulus griseus.
The nature of assay [10]: Fluorescence-based cell-based high throughput dose response assay for inhibitors of the interaction of nucleotide-binding oligomerization domain containing 2 (NOD2) and the receptor-interacting serine-threonine kinase 2 (RIPK2). In kind it is functional, Homo sapiens. As to conditions: Homo sapiens.
The target of assay [11] is Paired box protein Pax-8 (Homo sapiens, UniProt Q06710). The assay can be described thus: PAX8 transcriptional activity inhibition in RMG-I – RMG-I cells, luciferase, cherry-pick, dose response (AID 687027).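 Further: luciferase reporter driven by Pax8 target thyroperoxidase promoter measured by SteadyGlo luminescence.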 The class given is functional, cell-based.
Assay [12] concerns the target Beta-2 adrenergic receptor (Homo sapiens, UniProt P07550). The assay can be described thus: ADRB2 activation measured by internalization – cell-based, FAP fluorogen, flow cytometry, cherry pick 1, dose response (AID 588763). In kind it is functional.
The nature of assay [13]: microbe, parasite or virus in culture. As to conditions: Mycobacterium tuberculosis. The class given is functional.
Assay [14] has as its system HEK293. The assay can be described thus: EBV LMP1 TES2 canonical NF-kB signalling blockers – cell-based, HEK293, luciferase, cherry-pick, dose response (AID 588343). The note with it: Homo sapiens. In kind it is functional.
Assay [15] concerns the target Latent membrane protein 1 (Human herpesvirus 4 (strain B95-8), UniProt P03230). As to the kind of experiment: LMP1 TES1 pathway selectivity over dsRED control – imaging, HEK293T, dual-color eGFP/dsRED, cherry-picks, selectivity assay for LMP1 NF-kB inhibitor project, dose response (AID 588398). In kind it is functional, cell-based.
The subject of assay [16] is INS1. As to the kind of experiment: INS-1E survival protection against cytokine death – cell-based, luminescence, retest, dose response (AID 449756).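 Further: cell death triggered by IL-1 beta plus TNF-alpha plus IFN-gamma mixture; protective hits raise ATP signal compared with cytokine alone wells.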 In kind it is functional. The note with it: Rattus norvegicus.
Assay [17] deals with T2, Caspase-3. As to the kind of experiment: inhibition of recombinant caspase-3 activity – biochemical, luminescence, set 2, selectivity assay for SENP protease inhibitor project, SAR follow-up (AID 588599). The class given is functional.
Assay [18] deals with T1, Sentrin-specific protease 8. As to the kind of experiment: inhibition of sentrin protease 8 – biochemical, luminescence, set 2, SAR follow-up (AID 588601). The class given is functional.
Assay [19] has as its target T4, Sentrin-specific protease 7. As to the kind of experiment: inhibition of human SENP7 cleavage activity – biochemical, luminescence, set 2, SAR follow-up (AID 588600). The class given is functional.
The target in assay [20] is T3, Sentrin-specific protease 6. As to the kind of experiment: inhibition of human SENP6 catalytic domain – biochemical, luminescence, set 2, SAR follow-up (AID 588598). The class given is functional.

Paired box protein Pax-8, sequence (Q06710 whole entry): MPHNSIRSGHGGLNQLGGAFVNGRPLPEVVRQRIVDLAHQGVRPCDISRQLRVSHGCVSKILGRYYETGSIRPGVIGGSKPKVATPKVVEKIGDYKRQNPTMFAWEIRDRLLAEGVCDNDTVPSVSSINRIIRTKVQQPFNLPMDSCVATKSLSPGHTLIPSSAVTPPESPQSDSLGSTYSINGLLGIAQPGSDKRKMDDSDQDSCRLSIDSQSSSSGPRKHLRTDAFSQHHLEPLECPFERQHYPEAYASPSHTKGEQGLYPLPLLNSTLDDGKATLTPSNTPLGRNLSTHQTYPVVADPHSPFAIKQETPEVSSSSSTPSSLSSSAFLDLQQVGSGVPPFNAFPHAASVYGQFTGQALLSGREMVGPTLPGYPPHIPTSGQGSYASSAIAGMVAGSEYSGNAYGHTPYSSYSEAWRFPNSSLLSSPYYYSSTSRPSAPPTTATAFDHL
Mucolipin-3, sequence (Q8TDD5 whole entry): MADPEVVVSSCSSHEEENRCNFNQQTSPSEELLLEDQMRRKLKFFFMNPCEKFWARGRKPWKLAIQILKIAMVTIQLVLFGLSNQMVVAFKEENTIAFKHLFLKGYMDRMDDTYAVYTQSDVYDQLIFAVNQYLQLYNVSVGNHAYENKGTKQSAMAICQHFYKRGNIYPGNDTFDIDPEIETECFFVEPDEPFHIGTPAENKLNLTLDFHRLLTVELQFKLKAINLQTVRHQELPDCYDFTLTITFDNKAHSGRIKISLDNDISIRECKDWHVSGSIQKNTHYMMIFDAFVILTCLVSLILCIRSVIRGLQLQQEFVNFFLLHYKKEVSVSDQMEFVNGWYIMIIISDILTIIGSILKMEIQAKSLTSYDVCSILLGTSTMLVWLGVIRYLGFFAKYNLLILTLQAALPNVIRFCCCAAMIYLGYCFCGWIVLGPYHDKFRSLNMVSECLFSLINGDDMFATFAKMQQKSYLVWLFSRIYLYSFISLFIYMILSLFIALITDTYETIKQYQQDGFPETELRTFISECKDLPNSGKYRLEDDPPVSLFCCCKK
Ion channel NompC, sequence (Q7T1G6 whole entry, the tested form may be a part): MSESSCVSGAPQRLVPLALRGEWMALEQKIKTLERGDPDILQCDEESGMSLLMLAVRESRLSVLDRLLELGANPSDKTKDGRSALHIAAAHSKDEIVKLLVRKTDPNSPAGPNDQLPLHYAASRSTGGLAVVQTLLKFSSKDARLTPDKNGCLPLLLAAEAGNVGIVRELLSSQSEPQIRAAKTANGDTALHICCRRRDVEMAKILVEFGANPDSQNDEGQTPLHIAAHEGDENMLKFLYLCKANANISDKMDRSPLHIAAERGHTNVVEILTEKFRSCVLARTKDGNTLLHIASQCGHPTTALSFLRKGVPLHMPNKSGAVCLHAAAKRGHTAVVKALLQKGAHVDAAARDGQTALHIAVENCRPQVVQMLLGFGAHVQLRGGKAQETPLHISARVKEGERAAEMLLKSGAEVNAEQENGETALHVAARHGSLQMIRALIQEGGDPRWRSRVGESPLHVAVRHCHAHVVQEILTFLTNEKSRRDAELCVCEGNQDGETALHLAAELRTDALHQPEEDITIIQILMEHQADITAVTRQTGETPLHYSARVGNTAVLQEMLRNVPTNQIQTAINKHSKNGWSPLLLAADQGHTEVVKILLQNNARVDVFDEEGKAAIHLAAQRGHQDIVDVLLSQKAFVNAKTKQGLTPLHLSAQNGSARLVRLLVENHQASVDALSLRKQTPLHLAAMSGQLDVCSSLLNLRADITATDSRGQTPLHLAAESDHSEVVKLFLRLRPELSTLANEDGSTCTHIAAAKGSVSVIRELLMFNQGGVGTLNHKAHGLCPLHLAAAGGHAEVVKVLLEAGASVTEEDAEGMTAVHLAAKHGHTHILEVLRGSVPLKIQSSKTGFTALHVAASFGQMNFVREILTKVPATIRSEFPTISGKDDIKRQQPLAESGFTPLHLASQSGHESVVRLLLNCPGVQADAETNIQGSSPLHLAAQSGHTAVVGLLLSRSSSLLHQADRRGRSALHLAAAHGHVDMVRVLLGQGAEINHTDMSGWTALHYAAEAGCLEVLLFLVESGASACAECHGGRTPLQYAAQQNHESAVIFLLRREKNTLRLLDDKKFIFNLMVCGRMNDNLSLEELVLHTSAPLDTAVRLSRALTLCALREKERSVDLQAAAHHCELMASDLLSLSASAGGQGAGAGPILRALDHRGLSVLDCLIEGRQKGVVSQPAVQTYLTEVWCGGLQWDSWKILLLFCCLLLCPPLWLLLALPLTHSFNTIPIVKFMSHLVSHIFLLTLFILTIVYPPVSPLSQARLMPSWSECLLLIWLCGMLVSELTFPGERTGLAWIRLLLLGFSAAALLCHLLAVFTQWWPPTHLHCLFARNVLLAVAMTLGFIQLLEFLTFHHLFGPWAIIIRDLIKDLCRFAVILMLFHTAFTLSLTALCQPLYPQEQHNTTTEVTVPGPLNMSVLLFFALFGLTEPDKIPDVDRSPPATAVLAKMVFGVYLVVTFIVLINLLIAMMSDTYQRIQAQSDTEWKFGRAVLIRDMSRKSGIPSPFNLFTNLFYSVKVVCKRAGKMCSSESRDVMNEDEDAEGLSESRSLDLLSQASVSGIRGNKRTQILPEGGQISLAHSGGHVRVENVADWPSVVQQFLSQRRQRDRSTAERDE
Beta-2 adrenergic receptor, sequence (P07550 whole entry): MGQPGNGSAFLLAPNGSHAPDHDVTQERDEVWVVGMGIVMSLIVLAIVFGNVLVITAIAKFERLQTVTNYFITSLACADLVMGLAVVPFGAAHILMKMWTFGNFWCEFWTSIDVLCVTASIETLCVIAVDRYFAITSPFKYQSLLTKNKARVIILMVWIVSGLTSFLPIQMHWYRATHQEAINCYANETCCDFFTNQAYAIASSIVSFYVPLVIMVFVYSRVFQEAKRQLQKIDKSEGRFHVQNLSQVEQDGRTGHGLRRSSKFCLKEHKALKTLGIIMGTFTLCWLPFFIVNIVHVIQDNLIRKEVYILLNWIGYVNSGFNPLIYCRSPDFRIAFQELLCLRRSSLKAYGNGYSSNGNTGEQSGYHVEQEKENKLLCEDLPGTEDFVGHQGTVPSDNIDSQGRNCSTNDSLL
Latent membrane protein 1, sequence (P03230 whole entry): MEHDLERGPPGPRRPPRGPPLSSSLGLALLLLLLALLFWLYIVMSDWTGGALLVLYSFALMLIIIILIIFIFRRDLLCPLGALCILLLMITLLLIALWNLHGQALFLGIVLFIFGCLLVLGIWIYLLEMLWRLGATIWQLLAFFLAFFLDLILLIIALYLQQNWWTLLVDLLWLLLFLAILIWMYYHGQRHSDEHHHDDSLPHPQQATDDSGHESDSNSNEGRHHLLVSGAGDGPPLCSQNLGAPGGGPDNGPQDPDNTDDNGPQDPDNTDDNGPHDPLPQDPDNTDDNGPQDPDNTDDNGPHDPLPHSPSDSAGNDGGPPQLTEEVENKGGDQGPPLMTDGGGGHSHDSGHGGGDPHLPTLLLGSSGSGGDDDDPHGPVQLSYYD

On to `COc1cc(Cc2nccc3cc(OC)c(OC)cc23)c(C(=O)c2ccccc2)cc1OC`, for which the IC50 – broadly, the point on the concentration scale where inhibition reaches its midpoint – in assay [1] is > 99 µM (inactive); in assay [2] it was 71.6 µM (active); in assay [3] it was 50.9 µM (active); in assay [4], > 99 µM (inactive).
With `O=c1c(Cl)c(Cl)cnn1Cc1nnc(-c2ccccc2Br)o1`, the concentration giving a half-maximal response (EC50) (as a rule, the concentration giving half of the maximal effect) in [5] is 2.03 µM (active); in assay [6] it was 3.15 µM (active); in assay [7], 2.51 µM (active); in assay [8] it was 11.3 µM (not active). In addition, the results for the half-maximal inhibitory concentration (IC50) in assay [9] and in assay [10] were 1.81 µM (active) and 7.65 µM (active), respectively. For the same compound, in [11], the AC50 – broadly, the concentration at which the activity in the assay is half-maximal – was 7.63 µM (active).
Consider `CN(Cc1cccs1)c1nc(-c2cccnc2)nc2ccccc12`, for which the EC50 in assay [12] was 1.26 µM (active).
On to `Clc1ccc(SCc2cc(N3CCOCC3)nc(-c3ccccn3)n2)cc1`, for which the concentration for a half-maximal effect (EC50) in [5] was 1.51 µM (active); in assay [7], > 60 µM (not active). For the same compound, the CC50 in assay [13] was 19.5 µM (active). The AC50 in assay [14] is 12.1 µM (active); in assay [15], 10.5 µM (active); in assay [16] it was 2.57 µM (active).
In the case of `Cc1ccc(S(=O)(=O)NCCC(=O)N/N=C\c2c[nH]c3ccccc23)cc1`, the IC50 in assay [17], in assay [18], in assay [19] and in assay [20] was > 99 µM (inactive) in each case.
